Data published in US6689762B1, “Composition and methods for treatment of HIV infection” (Enzon Pharmaceuticals, Inc., priority 1998, dated 2004).
“And” between values parts separate entries of the source, which are not always exact repeats. Identical values can stand only once.

Assays:
[1] = tested on: HIV-RT levels of HIV-1 infected CEM/0 cell pellets; test: HIV-RT ELISA (Reverse Transcriptase Assay, non-radioactive) in cell pellets of HIV-1 infected CEM/0 T-cells; type: cell-based; parameters: % of control (of RANGE) / % of control (of MEAN): concentration or dose not given beside the values; conditions: for MEAN (HIV-RT): Table 5, three wells; for % of control (of RANGE): * single point determination; for MEAN X3 (HIV-RT): Table 9
Description: The following is a general procedure for the HIV-reverse transcriptase assay:
The cell line used for these studies is CCRF/CEM/O, a human T-leukemic cell line. PEG-ASNase (ONCASPAR) is provided by Rhone-Poulenc Rorer. Saquinavir is commercially available. RPMI-1640 media (Irvine Scientific, Irvine, Calif.) is enriched with 10% Fetal Calf Serum (Gemini Biosource, Calabasas, Calif.), 5% 1M Hepes Buffer solution and 5% Non-essential amino acids (Irvine Scientific, Irvine, Calif.). The drug concentrations used are as follows:
Briefly, 2×10^6 cells/ml are stimulated with PHA+ media for 48 hours at 37° C. with 5% CO2. Also, the same number of cells are incubated in PHA(phytohemagglutinin) free media for 48 hours to serve as the negative control. At this point the cells are inoculated with the HIV-1 virus as per standard protocol. PEG-ASNase and/or Saquinavir are added to the cells in the appropriate concentrations (see above). The control cells are resuspended in drug-free media for the duration of the exposure which lasted seven days. At day five, two 1 ml aliquots of media are removed from the flasks and stored under liquid nitrogen. At day seven, two more 1 ml aliquots of media are removed from the flasks and stored under liquid nitrogen. In addition, the remaining cells are pelleted and stored at −80° C.
The samples produced from this experiment are itemized and then assayed for HIV-RT using the Reverse Transcriptase Assay, non-radioactive (Boehringer Mannheim). The standard curve is determined and the HIV-RT levels for the experimental samples are calculated.
This experiment is carried out using a similar procedure, and the same concentrations of materials as in Experiment 7, however the exposure of the HIV virus in T-cell pellets to PEG-ASNase and Saquinavir alone, and in combination is measured. It should be noted that “PEG” in Table 2a represents PEG-ASNase. […]

CEM/0 cells [2] = test: cells; type: cell-based, human; conditions: for IC50: Homo sapiens, CCRF-CEM
Description: A human leukemic T-cell line, hereafter referred to as CEM/0 is used for this experiment. PEG-ASNase is obtained from Rhone-Poulenc Rorer Pharmaceuticals Inc under the tradename Oncaspar®. Saquinavir is obtained from Roche Laboratories under the tradename Invirase™. RPMI-1640 media obtained from Irvine Scientific, Irvine Calif. is enriched with 10% Fetal Calf Serum obtained from Gemini Biosource, Calabasas, Calif., 5% 1M Hepes buffer solution and 5% non-essential amino acids obtained from Irvine Scientific, Irvine Calif.
An experiment is carried out to determine the cytotoxicity of Saquinavir and PEG-ASNase. For determining the cytotoxicity of either compound alone, 2×10^5 cells/ml are incubated in 24-well plates with the following drug concentrations:
(§1) In all in vitro studies, the negative control cells are incubated in a drug-free media for the same duration and under the same conditions as the experimental samples. Cell density is measured via cell counting using a Coulter Counter coupled with a Coulter Channelyzer for each of the experimental flasks at 24, 48 and 72 hours after incubation. Additionally, Trypan Blue Exclusion tests are performed for each of these experimental conditions. Cell numbers are corrected for the viability determined by the Trypan Blue test and presented as a percentage of the untreated control.

CEM/0 cells [3] = test: Sequential and concurrent combination cytotoxicity of PEG-ASNase and Saquinavir; type: cell-based, human; conditions: CEM/0 T-cells
Experimental: In this experiment, the described range of concentrations is used to investigate the combined regimen of Saquinavir and PEG-ASNase. For the sequential combination studies of PEG-ASNase followed by Saquinavir, cells are incubated with the concentrations provided below of PEG-ASNase for 24 hours. Then Saquinavir, in the concentrations provided below, is added to the appropriate cells for an additional twenty-four (24) hours, bringing the total exposure time to forty-eight (48) hours. The exposure involved 2×10^5 cells/ml being incubated in a tissue culture flask with concentrations of the drugs investigated as provided below. […] The drug concentrations used are as follows:
as §1
The reverse sequence is also tested. […] Saquinavir is administered and the cells incubated for twenty-four (24) hours followed by addition of PEG-ASNase and an additional incubation period of twenty-four (24) hours, bringing the total exposure time to forty-eight (48) hours. Other than the drug sequence, the methodology is the same as that mentioned immediately above. The concurrent combination regimen is also tested using the same methodology. […] The concurrent combined methodology experiment had the samples exposed to forty-eight (48) hours of concurrent combined exposure.

[4] = tested on: asparagine, glutamine, and aspartic acid levels of CEM/0 cells; test: Determination of amino acid levels after PEG-ASNase exposure (HPLC); type: cell-based, human; conditions: 24 hours exposure
Experimental: Experiments to determine the amino acid level in cell suspensions and cell media are performed to determine the effect of PEG-ASNase on the amino acid levels, particularly the levels of asparagine, glutamine, and aspartic acid.
Samples of 50 μl media and 10 μl of 1 mM aminoadopic acid are added to 450 μl of cold methanol in 1.5 ml microfuge tubes. The mixtures are vortexed and centrifuged at 8700 g for two minutes. The supernatants are transferred to borosilicate glass test tubes (13×100 mm) and lyophilized. The specimens are stored at −20° C. until they are analyzed by HPLC. Prior to HPLC analysis, the samples are dissolved in a buffer containing 95% […] disodium hydrogen phosphate and 5% acetonitrile.

[5] = Experiment 7, monotherapy at IC50 concentrations or combination
[6] = Experiment 10 (3TC) text, cell pellets
[7] = Table 9, per well, listed as SAQ
[8] = Table 2a, per flask, listed as PEG
[9] = Table 9, per well, listed as PEG

## Cc1cn([C@H]2C[C@H](N=[N+]=[N-])[C@@H](CO)O2)c(=O)[nH]c1=O [AZT, zidovudine]
[1]; Experiment 7, cell pellets
  inhibition of HIV-RT: most dramatic inhibition
[1]; Table 5
  % of control (of MEAN): 0%
  % of control (of RANGE): 0%
[1]; Table 5, per well, negative values set to 0
  HIV-RT: 0 pg/well
[1]
  MEAN (HIV-RT): 0 pg/well
  MEAN X3 (HIV-RT): 0 ng/well
[1]; Table 9, per well
  HIV-RT (negative values set to 0): 0 ng/well

## CC(C)(C)NC(=O)[C@@H]1C[C@@H]2CCCC[C@@H]2CN1C[C@@H](O)[C@H](Cc1ccccc1)NC(=O)[C@H](CC(N)=O)NC(=O)c1ccc2ccccc2n1 [Saquinavir]
CEM/0 cells [2]; 72 h, read-out: IC50 in CEM/0 cells
  IC50: 26 µM
CEM/0 cells [2]; read-out: IC50 in CEM/0 cells
  IC50: 21 to 28 µM
CEM/0 cells [2]; read-out: Saquinavir IC50 alone
  IC50: 25 µM
CEM/0 cells [2]; Saquinavir 10 μM
  kill compared to untreated control: 8.76%
CEM/0 cells [2]; Saquinavir 100 μM, highest concentration tested
  kill compared to control cells: 99.50%
CEM/0 cells [2]; Saquinavir 0.001 to 1 μM
  cell kill: no cell kill
CEM/0 cells [3]; Homo sapiens, CCRF-CEM, read-out: IC50 in combination, Saquinavir part, concurrent combination of PEG-ASNase and Saquinavir
  IC50: 14.5 µM
CEM/0 cells [3]; read-out: IC50 in combination, Saquinavir part, concurrent combination of PEG-ASNase and Saquinavir, listed as SAQ
  IC50: 14.5 µM
[1]; Experiment 5a text, combination at synergistically reduced concentrations
  inhibition of HIV-RT in comparison with the control: approximately 15%
[1]; [5]
  inhibition of HIV-RT: 83%
[1]; [6]
  inhibition of HIV-RT: some inhibition
[1]; Table 2a
  group mean (X2/X3) +/- S.D.: X2 = 31.10 +/− 4.67 pg/well, % CV = 15.01%
[1]; Table 5
  % of control (of MEAN): 12.7%
  % of control (of RANGE): 12.7%
[1]
  MEAN (HIV-RT): 0.016 pg/well
  MEAN X3 (HIV-RT): 0.022 ng/well
[1]; [7]
  HIV-RT: 0.021 ng/well and 0.023 ng/well
  HIV-RT (negative values set to 0): 0.021 ng/well and 0.023 ng/well

B1: PEG-ASNase: asparaginase conjugated with polyethylene glycol (PEG); sold under the name ONCASPAR by Rhône-Poulenc Rorer (conjugate, UniProt P00805 23-348, looked up)
L-asparaginase 2: LPNITILATGGTIAGGGDSATKSNYTVGKVGVENLVNAVPQLKDIANVKGEQVVNIGSQDMNDNVWLTLAKKINTDCDKTDGFVITHGTDTMEETAYFLDLTVKCDKPVVMVGAMRPSTSMSADGPFNLYNAVVTAADKASANRGVLVVMNDTVLDGRDVTKTNTTDVATFKSVNYGPLGYIHNGKIDYQRTPARKHTSDTPFDVSKLNELPKVGIVYNYANASDLPAKALVDAGYDGIVSAGVGNGNLYKSVFDTLATAAKTGTAVVRSSRVPTGATTQDAEVDDAKYGFVASGTLNPQKARVLLQLALTQTKDPQQIQQIFNQY
modifications: PEG conjugate (pegaspargase)
notes: asparaginase conjugated with polyethylene glycol (PEG); sold under the name ONCASPAR by Rhône-Poulenc Rorer
CEM/0 cells [2]; CEM/0 T-cells, single agent
  PEG-ASNase IC50 alone: 0.4 IU/ml and 0.40 IU/ml
CEM/0 cells [2]; CEM/0 cells in vitro, over 72 hours
  concentration that produces a cytostatic condition: approximately 0.5 IU/ml
CEM/0 cells [2]; PEG-ASNase 0.03, 0.1, 0.2, 0.3 and 0.4 IU/ml, compared to control growth rate
  effect on cell growth: marginally effective in preventing cell growth
CEM/0 cells [3]; concurrent combination of PEG-ASNase and Saquinavir
  IC50 in combination, PEG-ASNase part: 0.233 IU/ml
CEM/0 cells [3]; concurrent combination of PEG-ASNase and Saquinavir, listed as PEG
  IC50 in combination, PEG-ASNase part: 0.23 IU/ml
[4]; highest PEG-ASNase concentration
  glutamine level, % of the untreated control: less than 3.0%
[4]; various PEG-ASNase concentrations
  asparagine level, % of the untreated control: less than 3.0%
[1]; Example 1, day 7 pellets, PEG-ASNase 0.4 IU/ml, Saquinavir 25 μM, combination 0.233 IU/ml + 14.5 μM
  inhibition of intracellular HIV-RT as compared to untreated control: about 30%
[1]; Experiment 5a, day 7
  effect in inhibiting HIV-RT: moderate effect
[1]; [5]
  inhibition of HIV-RT: 54%
[1]; [6]
  inhibition of HIV-RT: some inhibition
[1]; Table 2a
  group mean (X2/X3) +/- S.D.: X3 = 68.43 +/− 11.26 pg/well, % CV = 16.45%
[1]; [8]
  % cont.: 79.9% and 68.0% and 57.4%
  HIV-RT: 0.330 pg/well and 0.281 pg/well and 0.237 pg/well
[1]; Table 5
  % of control (of MEAN): 46.03%
  RANGE (HIV-RT, low or zero wells left out): 0.085 pg/well
  % of control (of RANGE): 67.46%
[1]
  MEAN (HIV-RT): 0.058 pg/well
  MEAN X3 (HIV-RT): 0.159 ng/well
[1]; [9]
  HIV-RT: 0.201 ng/well and 0.142 ng/well and 0.133 ng/well
  HIV-RT (negative values set to 0): 0.201 ng/well and 0.142 ng/well and 0.133 ng/well
